In patent US7671085B2, “Non-steroidal farnesoid X receptor modulators and methods for the use thereof” (The Salk Institute for Biological Studies, priority 2002, dated 2010):
pEC50: −log10 of the molar value. Entries after “also recorded” stand apart in the source; their conditions may differ.

Target: T1, FXR (Homo sapiens, UniProt Q96RI1)
T1 construct: using a full length FXR on a natural response element; expressed in transfected cells
T1 sequence (Q96RI1 1-486): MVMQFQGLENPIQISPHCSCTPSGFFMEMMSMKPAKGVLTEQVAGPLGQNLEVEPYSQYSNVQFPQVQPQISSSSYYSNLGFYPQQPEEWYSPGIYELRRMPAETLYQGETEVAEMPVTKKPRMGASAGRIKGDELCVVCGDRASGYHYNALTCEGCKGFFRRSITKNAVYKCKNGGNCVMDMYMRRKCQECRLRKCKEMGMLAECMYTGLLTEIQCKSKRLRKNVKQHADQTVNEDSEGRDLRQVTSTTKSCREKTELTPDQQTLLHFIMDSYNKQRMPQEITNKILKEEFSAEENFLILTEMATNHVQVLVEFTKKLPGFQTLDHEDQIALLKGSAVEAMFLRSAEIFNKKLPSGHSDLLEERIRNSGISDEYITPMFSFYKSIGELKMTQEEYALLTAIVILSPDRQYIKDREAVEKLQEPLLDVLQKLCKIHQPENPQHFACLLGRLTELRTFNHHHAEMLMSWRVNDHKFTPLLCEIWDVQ
Experiment: cell-based FXR transcription assay, FXR responsive promoter linked to luciferase reporter
Settings: for FXR activation, in words: cell-based reporter assay, SAR discussion; for RE^a / pEC50: cell-based FXR reporter assay; for RE^a: footnote a not given; for pEC50: determined with Prism 3.0
Source text: In addition to ensuring that only cell permeable compounds were selected for further optimization, this approach allows for the detection of FXR activation in a natural system (i.e., correct folding of the protein and in the presence of a complete compliment of co-activators and co-repressors).
The feasibility of creating high throughput screens (HTS) for ORs was explored using FXR as a candidate orphan receptor (OR) with a known activator, chenodeoxycholic acid (CDCA) as a ligand. The screen is based on the co-transfection of a full-length receptor with the reporter vector containing a natural hormone response element under a minimal eukaryotic promoter. […] Using this 384-well format, the high throughput screening (HTS) approach to FXR as a candidate OR was employed. […] A central question in the feasibility studies is whether this library is suitable for screening for nuclear receptor ligands. Samples of this library were first reformatted into a 384-well format and then subjected to the FXR cell-based assays described above and assessed for FXR-mediated transcriptional activity. Cells were exposed to approximately 10 μM of sample for 18 hrs prior to washing and luciferase analysis.
EC50 values were determined with Prism 3.0 software via the activity of the subject compound in the previously described cell based assay.

SMILES	FXR activation, in words	RE^a	pEC50
COC(=O)C=Cc1cccc(N(Cc2ccc(C=CC(=O)OC(C)(C)C)cc2)C(=O)NCc2ccccc2)c1 [Compound 146]	only marginal efficacy	0.27	–
CC(C)(C)OC(=O)C=Cc1ccc(CN(C(=O)C2CCCCC2)c2cccc(C=CCOc3ccccc3)c2)cc1 [Compound 138]	–	0.45	–
COC(=O)C=Cc1cccc(N(Cc2ccc(C=CC(=O)OC(C)(C)C)cc2)C(=O)C2CC2)c1 [Compound 140]	–	1.68	–
COC(=O)/C=C/c1cccc(N(Cc2cccc(C(F)(F)F)c2)C(=O)C2CCCCC2)c1 [Compound 117]	–	0.12	–
COC(=O)/C=C/c1cccc(N(Cc2ccc(-c3cccc(C)c3)cc2)C(=O)NC(C)C)c1 [Compound 240]	–	0.53	–
COC(=O)/C=C/c1cccc(N(Cc2ccc(-c3c(OC)cccc3OC)cc2)C(=O)C(C)C)c1 [Compound 257]	excellent activity	0.10	–
COC(=O)/C=C/c1cccc(N(Cc2ccc(/C=C/c3cccc(C(F)(F)F)c3)cc2)C(=O)NC(C)C)c1 [Compound 188]	–	0.31	–
COC(=O)/C=C/c1cccc(N(Cc2ccc(/C=C/c3cccc(F)c3)cc2)C(=O)NC(C)C)c1 [Compound 203]	–	0.61	–
COC(=O)/C=C/c1cccc(N(Cc2ccc(-c3ccc(F)c(F)c3)cc2)C(=O)C2CCCCC2)c1 [Compound 213]	excellent activity	1.70	–
COC(=O)/C=C/c1cccc(N(Cc2ccc(-c3ccc(SC)cc3)cc2)C(=O)C(C)C)c1 [Compound 216]	excellent activity	0.98	–
COC(=O)/C=C/c1cccc(N(Cc2ccc(-c3ccc(N(C)C)cc3)cc2)C(=O)NC(C)C)c1 [Compound 261]	–	1.01	–
COC(=O)/C=C/c1cccc(N(Cc2cc(OC)cc(OC)c2)C(=O)C2CCCCC2)c1 [Compound 118]	–	0.11	–
COC(=O)C=Cc1cccc(N(Cc2ccccc2Br)C(=O)C2CCCCC2)c1 [Compound 114]	–	0.11	–
COC(=O)C=Cc1cccc(N(Cc2ccc(C=Cc3ccc(F)cc3)cc2)C(=O)C2CCCCC2)c1 [Compound 204]	excellent activity; also recorded: among the most active	0.53	–
COC(=O)C=Cc1cccc(N(Cc2ccc(C=Cc3ccccn3)cc2)C(=O)C(C)C)c1 [Compound 208]	–	0.62	–
COC(=O)/C=C/c1cccc(N(Cc2ccc(-c3cc(Cl)cc(Cl)c3)cc2)C(=O)NC(C)C)c1 [Compound 222]	–	0.10	> 5.00
COC(=O)/C=C/c1cccc(N(Cc2ccc(-c3ccc(OC)cc3)cc2)C(=O)NC(C)C)c1 [Compound 231]	–	1.18	–

SMILES	FXR activation, in words	RE^a	pEC50
COC(=O)/C=C/c1cccc(N(Cc2cccc(/C=C/C(=O)OC(C)(C)C)c2)C(=O)C2CCCCC2)c1 [Compound 107]	only micromolar potency	–	–
COC(=O)/C=C/c1cccc(N(Cc2ccc(-c3cc(Cl)cc(Cl)c3)cc2)C(=O)C2CCCCC2)c1 [Compound 126]	–	0.95	–
COC(=O)/C=C/c1cccc(N(Cc2ccc(-c3cccc(C)c3)cc2)C(=O)C2CCCCC2)c1 [Compound 238]	excellent activity	1.43	–
COC(=O)C=Cc1cccc(N(Cc2ccc(CCC(=O)OC(C)(C)C)cc2)C(=O)C2CCCCC2)c1 [Compound 159]	–	1.56	–
COC(=O)/C=C/c1cccc(N(Cc2ccc(-c3cc(Cl)cc(Cl)c3)cc2)C(=O)C(C)C)c1 [Compound 221]	–	0.54	6.18
COC(=O)/C=C/c1cccc(N(Cc2ccc(-c3ccc(F)c(Cl)c3)cc2)C(=O)C2CCCCC2)c1 [Compound 247]	excellent activity	1.87	–
COC(=O)/C=C/c1cccc(N(Cc2ccc(-c3ccc(C(C)(C)C)cc3)cc2)C(=O)NC(C)C)c1 [Compound 264]	–	1.02	–
CCOC(=O)C=Cc1cccc(N(Cc2ccc(C=CC(=O)OC(C)(C)C)cc2)C(=O)C2CCCCC2)c1 [Compound 133]	marked decline in potency	2.07	6.59
COC(=O)/C=C/c1cccc(N(Cc2ccc3c(c2OC)OC(C)(C)C=C3C(=O)O)C(=O)c2ccccc2)c1 [Compound 86]	did not improve the activity	–	–
COC(=O)/C=C/c1cccc(N(Cc2ccc(-c3ccc(F)c(Cl)c3)cc2)C(=O)NC(C)C)c1 [Compound 249]	–	0.41	–
COC(=O)C=Cc1cccc(N(Cc2ccc(C=Cc3cccc(C(F)(F)F)c3)cc2)C(=O)C2CCCCC2)c1 [Compound 186]	–	0.35	6.03
COC(=O)/C=C/c1cccc(N(Cc2ccc3c(c2OC)OC(C)(C)C2C3C2(Cl)Cl)C(=O)c2ccccc2)c1 (stereo not drawn) [Compound 102]	–	0.64	–
COC(=O)/C=C/c1cccc(N(Cc2ccc(-c3cccc(Cl)c3)cc2)C(=O)C(C)C)c1 [Compound 233]	excellent activity	1.52	7.11
CCOc1cccc(-c2ccc(CN(C(=O)C3CCCCC3)c3cccc(/C=C/C(=O)OC)c3)cc2)c1 [Compound 226]	–	1.37	–
COC(=O)C=Cc1cccc(N(Cc2ccc(C=CC(=O)NC(C)(C)C)cc2)C(=O)C2CCCCC2)c1 [Compound 155]	–	1.65	< 6.00
COC(=O)/C=C/c1cccc(N(Cc2ccccc2/C=C/C(=O)OC(C)(C)C)C(=O)C2CCCCC2)c1 [Compound 109]	only micromolar potency	–	–
COC(=O)C=Cc1cccc(N(Cc2ccc(C=CC(=O)OC(C)(C)C)cc2OC)C(=O)C2CCCCC2)c1 [Compound 162]	–	0.14	–

Now from value to compound:

FXR activation, in words	RE^a	pEC50	SMILES
inactive	–	–	COC(=O)/C=C/c1cccc(N(Cc2ccc3c(c2OC)OC(C)(C)C=C3)C(=S)NCc2ccccc2)c1 [Compound 84]
–	0.16	–	COC(=O)C=Cc1cccc(N(Cc2ccc(C=CC(=O)OC(C)(C)C)cc2OC(=O)c2ccccc2)C(=O)C2CCCCC2)c1 [Compound 165]
marked decline in potency	0.50	–	CC(C)(C)OC(=O)C=Cc1ccc(CN(C(=O)C2CCCCC2)c2cccc(C=CC(N)=O)c2)cc1 [Compound 135]
–	1.97	–	COC(=O)C=Cc1cccc(N(Cc2ccc(C=CC(=O)OC(C)C)cc2)C(=O)C2CCCCC2)c1 [Compound 152]
among the least active	0.24	–	COC(=O)C=Cc1cccc(N(Cc2ccc(C=Cc3c(C)cc(C)cc3C)cc2)C(=O)C2CCCCC2)c1 [Compound 195]
excellent activity	0.79	6.97	COC(=O)/C=C/c1cccc(N(Cc2ccc(/C=C/c3c(F)cccc3F)cc2)C(=O)C(C)C)c1 [Compound 190]
excellent activity	1.51	–	COC(=O)/C=C/c1cccc(N(Cc2ccc(-c3ccc4c(c3)OCO4)cc2)C(=O)NC(C)C)c1 [Compound 246]
–	0.81	–	COC(=O)C=Cc1cccc(N(Cc2ccc(C=Cc3ccccn3)cc2)C(=O)C2CCCCC2)c1 [Compound 207]
excellent activity	1.33	–	COC(=O)/C=C/c1cccc(N(Cc2ccc(/C=C/c3ccccc3)cc2)C(=O)C(C)C)c1 [Compound 198]
among the most active at this stage	–	–	COc1c(CN(C(=O)C2CC2)c2ccccc2)ccc2c1OC(C)(C)C=C2 [Compound 26]
–	0.11	–	COC(=O)/C=C/c1cccc(N(Cc2cccc(OC)c2)C(=O)C2CCCCC2)c1 [Compound 115]
–	1.96	–	COC(=O)/C=C/c1cccc(N(Cc2ccc(/C=C/C(=O)OC(C)(C)C)cc2)C(=O)c2ccccc2)c1 [Compound 143]
–	2.12	–	COC(=O)/C=C/c1cccc(N(Cc2ccc(/C=C/C(=O)OC(C)(C)C)cc2)C(=O)C2CCCCC2)c1 [Compound 105]
excellent activity	1.48	–	COC(=O)/C=C/c1cccc(N(Cc2ccc(-c3ccc(C)cc3)cc2)C(=O)C(C)C)c1 [Compound 236]
–	0.23	–	COC(=O)/C=C/c1cccc(N(Cc2ccc(-c3ccc(SC)cc3)cc2)C(=O)NC(C)C)c1 [Compound 217]
–	0.10	–	COC(=O)/C=C/c1cccc(N(Cc2ccc(-c3c(OC)cccc3OC)cc2)C(=O)NC(C)C)c1 [Compound 258]
–	1.03	–	CCOc1cccc(-c2ccc(CN(C(=O)C(C)C)c3cccc(/C=C/C(=O)OC)c3)cc2)c1 [Compound 227]
excellent activity	1.41	–	COC(=O)C=Cc1cccc(N(Cc2ccc(C=Cc3cccc(Cl)c3)cc2)C(=O)C2CCCCC2)c1 [Compound 180]
